Reference: PMC3420979 (Bioorganic & medicinal chemistry letters, 2012)

How the values were obtained:
[1] = target: Abl (Homo sapiens, UniProt P00519); test: Human kinase inhibition, Abl; assay type: biochemical; settings: parasite CDPK1s versus human Src or Abl
[2] = target: T1, CpCDPK1 (Cryptosporidium parvum, UniProt A3FQ16); test: Enzyme inhibition assay, CpCDPK1; assay type: biochemical; settings: IC50 against CpCDPK1 (nM), stated for both parasite CDPK1s
T1 sequence (A3FQ16 1-538): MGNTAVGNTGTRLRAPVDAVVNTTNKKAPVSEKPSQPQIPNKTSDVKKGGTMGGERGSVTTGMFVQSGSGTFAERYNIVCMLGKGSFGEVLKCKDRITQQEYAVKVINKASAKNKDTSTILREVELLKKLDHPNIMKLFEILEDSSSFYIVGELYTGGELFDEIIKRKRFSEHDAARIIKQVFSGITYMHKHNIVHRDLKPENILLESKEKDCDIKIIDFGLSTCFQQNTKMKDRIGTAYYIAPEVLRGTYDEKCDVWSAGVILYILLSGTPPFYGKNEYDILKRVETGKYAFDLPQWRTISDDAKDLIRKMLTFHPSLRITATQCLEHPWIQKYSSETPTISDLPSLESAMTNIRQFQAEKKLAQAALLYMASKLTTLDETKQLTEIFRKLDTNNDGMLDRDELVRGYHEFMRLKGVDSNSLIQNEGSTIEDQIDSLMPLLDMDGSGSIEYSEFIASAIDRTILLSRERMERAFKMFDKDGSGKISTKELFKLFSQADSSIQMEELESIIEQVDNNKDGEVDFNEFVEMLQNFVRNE

Sequence of Abl (P00519 whole entry): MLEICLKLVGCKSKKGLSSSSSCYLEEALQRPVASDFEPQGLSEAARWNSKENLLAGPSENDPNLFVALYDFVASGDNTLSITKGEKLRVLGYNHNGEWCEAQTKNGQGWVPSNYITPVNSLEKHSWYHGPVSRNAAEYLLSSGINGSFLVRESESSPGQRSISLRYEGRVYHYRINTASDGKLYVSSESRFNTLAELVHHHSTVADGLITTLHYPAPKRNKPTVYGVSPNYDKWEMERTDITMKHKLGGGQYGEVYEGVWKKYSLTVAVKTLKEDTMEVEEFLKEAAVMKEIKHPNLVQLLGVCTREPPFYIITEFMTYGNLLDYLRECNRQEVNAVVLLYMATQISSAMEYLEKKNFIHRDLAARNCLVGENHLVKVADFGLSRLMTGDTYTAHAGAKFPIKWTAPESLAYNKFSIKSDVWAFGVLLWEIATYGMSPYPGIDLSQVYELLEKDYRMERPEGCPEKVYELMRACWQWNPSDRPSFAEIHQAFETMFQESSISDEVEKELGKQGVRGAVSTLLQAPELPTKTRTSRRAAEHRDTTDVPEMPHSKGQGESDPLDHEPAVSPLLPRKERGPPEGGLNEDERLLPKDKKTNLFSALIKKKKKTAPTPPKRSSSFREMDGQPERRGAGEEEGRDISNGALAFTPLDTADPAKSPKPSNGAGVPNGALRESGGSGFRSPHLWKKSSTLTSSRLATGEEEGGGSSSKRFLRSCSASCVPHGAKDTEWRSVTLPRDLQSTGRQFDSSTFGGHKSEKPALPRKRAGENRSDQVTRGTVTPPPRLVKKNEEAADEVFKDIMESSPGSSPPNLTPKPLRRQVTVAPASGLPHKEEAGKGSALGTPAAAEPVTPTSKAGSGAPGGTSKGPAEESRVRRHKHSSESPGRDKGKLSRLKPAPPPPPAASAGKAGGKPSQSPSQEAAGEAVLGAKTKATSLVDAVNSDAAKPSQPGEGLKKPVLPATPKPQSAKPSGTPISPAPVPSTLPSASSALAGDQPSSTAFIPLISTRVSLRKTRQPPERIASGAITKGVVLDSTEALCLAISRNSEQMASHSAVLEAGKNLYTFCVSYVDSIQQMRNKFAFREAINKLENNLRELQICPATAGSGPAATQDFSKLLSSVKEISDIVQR

selectivity index over human Src or Abl [1]	IC50 [2]	Structure (SMILES)
> 200 fold	< 50 nM	Nc1nc2ccc(C(=O)c3ccccc3)cc2n1CCC1CCNCC1 [7c]
> 200 fold	< 50 nM	CN1CCN(CCn2c(N)nc3ccc(C(=O)c4ccccc4)cc32)CC1 [7p]
